Results taken from US20230391826A1, “COMPOSITIONS AND METHODS FOR TREATING DISEASES” (Sanford Burnham Prebys Medical Discovery Institute, priority 2020, published 2023).
Values after ≈ are worked out from the molar mass of the structure shown. Where two headings read alike, the source gives them in different places. Where a SMILES comes first, the peptide text is derived from it. Bridges are numbered along the chain shown (N, C = ends). Roman numbers before positions name the chains, in order. [ ]: non-standard residue; d: D form. βAla = NCCC(=O)O

Tests used:
[1] = biological target: T1, EphA2 (Homo sapiens, UniProt P29317); test: Bias factor βlig (pY588 versus pAKT inhibition, PC3 cells, reference ephrinA1-Fc); type: cell-based; parameters: EphA2 is the prevalent endogenously expressed EphA receptor in these cells; endogenous in cells; host or cells: PC3 prostate cancer cells; details: for βu (bias factor βlig): Table 3, reference ligand ephrinA1-Fc (βlig=0)
T1 sequence (P29317 24-976): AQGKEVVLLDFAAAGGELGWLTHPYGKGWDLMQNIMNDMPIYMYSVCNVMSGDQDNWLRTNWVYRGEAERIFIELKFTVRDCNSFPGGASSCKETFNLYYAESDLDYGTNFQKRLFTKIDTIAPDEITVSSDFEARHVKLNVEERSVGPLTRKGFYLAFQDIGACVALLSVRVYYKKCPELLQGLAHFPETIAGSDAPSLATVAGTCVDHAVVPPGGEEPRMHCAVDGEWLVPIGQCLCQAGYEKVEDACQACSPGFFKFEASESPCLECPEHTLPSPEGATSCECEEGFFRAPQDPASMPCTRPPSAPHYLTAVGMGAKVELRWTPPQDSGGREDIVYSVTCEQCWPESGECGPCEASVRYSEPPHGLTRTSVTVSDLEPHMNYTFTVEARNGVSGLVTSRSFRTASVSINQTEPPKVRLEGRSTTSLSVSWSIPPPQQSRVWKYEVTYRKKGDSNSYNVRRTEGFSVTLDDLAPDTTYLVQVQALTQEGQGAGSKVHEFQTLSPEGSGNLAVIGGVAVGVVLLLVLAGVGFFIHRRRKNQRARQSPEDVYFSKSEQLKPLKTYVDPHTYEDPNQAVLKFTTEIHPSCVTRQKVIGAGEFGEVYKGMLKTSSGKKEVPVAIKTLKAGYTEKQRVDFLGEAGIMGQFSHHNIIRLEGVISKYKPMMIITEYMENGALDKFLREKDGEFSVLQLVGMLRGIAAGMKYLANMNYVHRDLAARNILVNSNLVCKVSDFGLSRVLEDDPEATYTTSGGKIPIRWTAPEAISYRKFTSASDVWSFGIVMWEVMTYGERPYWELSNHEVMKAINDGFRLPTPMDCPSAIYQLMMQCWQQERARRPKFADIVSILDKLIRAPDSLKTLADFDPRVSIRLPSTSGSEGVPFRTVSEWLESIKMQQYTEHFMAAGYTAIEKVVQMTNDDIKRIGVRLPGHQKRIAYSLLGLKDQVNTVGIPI
Method: FIG. 6 illustrates an example where Ligands can bias EphA2 signaling responses. The bias factor βlig was calculated for the indicated ligands using ephrinA1-Fc as the reference ligand. Statistical significance for the comparison of the different ligands with the reference ligand ephrinA1-Fc (βlig=0) was determined by one sample t test; *, P<0.05; **, P<0.01; ***, P<0.001; ****, P<0.0001.
FIG. 14A-14E illustrates an example where distinct factors are responsible for EphA2 biased signaling induced by different ligands. (FIG. 14A) Etop values for EphA2 Y588 phosphorylation, as in FIG. 2C. (FIG. 14B) Etop values for inhibition of AKT phosphorylation. (FIG. 14C) Graph of the ratios of the Etop values for EphA2 Y588 phosphorylation and inhibition of AKT phosphorylation, which are used in the βlig calculation. (FIG. 14D) Graph of the ratios of the EC50 values for EphA2 Y588 phosphorylation and inhibition of AKT phosphorylation, which are used in the βlig calculation. (FIG. 14E) Equation used to calculate the bias factor βlig for each ligand. The terms of the equation are rearranged, compared to equation (1) in the Materials and Methods, to better conform to the graphs in FIG. 14A-14D. **, P<0.01; ***, P<0.001; ****, P<0.0001; ns, not significant for the comparison with ephrinA1-Fc by one-way ANOVA and Dunnett's posthoc test.
The possibility of EphA2 biased signaling by analyzing the dose-response curves obtained with endogenous EphA2 in PC3 cells (FIG. 2A) was explored using approaches developed for GPCRs. This involves using EphA2 Y588 phosphorylation and AKT phosphorylation quantified as a function of ligand concentration to determine and compare the potency (EC50) and efficacy (Etop) for the two responses induced by different ligands. Remarkably, large differences among the ligands in the Etop values for Y588 phosphorylation (FIGS. 2C, 2D and 14A), but not in the Etop values for AKT inhibition (FIGS. 2E and 14B), were observed. In terms of relative efficacies for pY588 and pAKT inhibition, the C-terminally linked dimers and monomeric ligands behave differently from ephrinA1-Fc, while the N-terminally linked dimers and the head-to-tail dimer (8) are similar to ephrinA1-Fc (FIG. 14C). […] Thus, the type of linkage affects EphA2 signaling properties induced by the dimeric peptides.
The determined EC50 and Etop values allowed us to calculate the bias factor βlig for the two different responses induced by the various ligands relative to ephrinA1-Fc as the reference ligand (FIG. 14E). […] Remarkably, the bias originates from different mechanisms that depend on the class of ligands, with the N-terminally linked and head-to-tail dimers modulating relative potencies and the C-terminally-linked dimers and monomers modulating relative efficacies.

[2] = biological target: T2, EphA2 extracellular domain fused to Fc (EphA2-Fc) (Homo sapiens, UniProt P29317); test: ELISA: inhibition of ephrinA5-AP binding to immobilized EphA2-Fc; details: inhibition of ephrin-A5 binding to EphA2; number of experiments in parentheses; read-out: Inc50 (nM) by ELISA
T2 construct: immobilized EphA2 extracellular domain fused to the Fc portion of an antibody (EphA2-Fc)
T2 sequence (P29317 24-537 limits assumed): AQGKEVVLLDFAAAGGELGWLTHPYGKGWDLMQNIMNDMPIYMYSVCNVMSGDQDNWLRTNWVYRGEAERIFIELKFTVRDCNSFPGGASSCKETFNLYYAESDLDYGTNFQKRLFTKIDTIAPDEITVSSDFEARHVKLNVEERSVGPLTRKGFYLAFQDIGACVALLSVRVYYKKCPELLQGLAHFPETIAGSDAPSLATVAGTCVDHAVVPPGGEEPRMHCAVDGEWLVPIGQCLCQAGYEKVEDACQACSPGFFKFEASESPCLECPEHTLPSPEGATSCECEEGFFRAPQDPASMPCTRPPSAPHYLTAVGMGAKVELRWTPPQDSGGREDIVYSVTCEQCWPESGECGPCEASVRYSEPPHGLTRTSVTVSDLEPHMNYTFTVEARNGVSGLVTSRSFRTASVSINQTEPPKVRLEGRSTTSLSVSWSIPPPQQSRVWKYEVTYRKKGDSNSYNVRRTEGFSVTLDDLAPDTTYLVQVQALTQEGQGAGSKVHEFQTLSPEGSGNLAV
From the text: FIG. 1A-1C illustrates an example of Potency and selectivity of EphA2-targeting dimeric peptides. (FIG. 1A) ELISAs comparing the ability of the peptides to inhibit binding of ephrin-A5 fused to alkaline phosphatase (ephrinA5-AP) to the immobilized EphA2 extracellular domain fused to the Fc portion of an antibody (EphA2-Fc). The graphs show averages ±SD from triplicate measurements from a representative experiment. IC50 values calculated from the fitted curves in each experiment are shown. Averages of IC50 values obtained from multiple experiments are shown in panel FIG. 1B and Table 3. The 10 nM peptide concentration is outlined in red. (FIG. 1B) Plot of the average IC50 values (listed in Table 3) for different ligands. […] (FIG. 1C) EphrinA5-AP binding to EphA receptors and ephrinB2-AP binding to EphB receptors in the presence of dimeric peptides representing each of the three configurations. Values are normalized to ephrin binding without peptide. The graphs show averages and SDs from triplicate measurements (with each measurement shown as a dot).

[3] = biological target: T3, EphA2 LBD (Homo sapiens, UniProt P29317); test: Isothermal titration calorimetry (ITC) with soluble EphA2 LBD; type: binding
T3 construct: made in house; host or cells: E. coli Origami 2(DE3)
T3 sequence (P29317 28-200): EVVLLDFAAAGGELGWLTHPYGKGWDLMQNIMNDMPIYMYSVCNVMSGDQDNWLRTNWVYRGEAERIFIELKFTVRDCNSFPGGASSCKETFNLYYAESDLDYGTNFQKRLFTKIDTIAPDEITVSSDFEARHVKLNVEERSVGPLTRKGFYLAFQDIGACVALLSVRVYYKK
Method: (FIG. 10A-10E) The EphA2 LBD was titrated at 200-250 μM into 10-12.5 μM of the indicated peptide.
For ITC, all peptides are dissolved in DMSO and both the EphA2 LBD and the peptides are diluted to obtain a final buffer containing 9.5 mM HEPES, pH 7.9, 95 mM NaCl, and 5% DMSO. The experiments are carried out at 296 K (23° C.) using an ITC200 calorimeter (Microcal). Two-microliter aliquots of a peptide solution are injected into the cell containing 205 μL EphA2 LBD. 200-400 μM peptides are titrated into 20-40 μM EphA2 LBD. Experimental data are analyzed using the Origin software package (Microcal). The integrated values for the reaction heats are normalized to the amount of injected peptide after blank subtraction.

[4] = biological target: T1, EphA2; test: EphA2 autophosphorylation on tyrosine 588 in PC3 cells (immunoblot dose-response); type: cell-based; parameters: EphA2 is the prevalent endogenously expressed EphA receptor in these cells; endogenous in cells; host or cells: PC3 prostate cancer cells; details: for Etop pY588: Table 3, 15 min, saturating ligand, pY588/EphA2 normalized to ephrinA1-Fc
Method: (§1) (FIG. 2A) Dose-response curves for EphA2 autophosphorylation on tyrosine 588 (pY588; purple) and for downstream inhibition of AKT phosphorylation (magenta). PC3 cells were treated for 15 min with different concentrations of the indicated peptides. […] The graphs show quantifications from multiple blots (averages ±SE; the number of experiments used to generate each curve is shown in Table 3). […] (FIG. 2B) Examples of immunoblots of lysates from PC3 cells treated with the indicated concentrations of representative ligands. […] A white vertical line indicates removal of irrelevant lanes. […] The bars show averages ±SE, and the individual measurements are shown as black dots. […] Plots of Etop versus EC50 for pY588 in FIG. 2D and for pAKT inh in FIG. 2E. Averages ±SE are shown for the peptides and ephrinA1.
To examine the agonistic properties of the different dimeric peptide ligands, EphA2 autophosphorylation on tyrosine 588 (Y588) was measured, which is indicative of receptor activation and mediates binding of SH2 domain-containing proteins that link EphA2 to various downstream signaling pathways (FIG. 7). For these experiments, PC3 prostate cancer cells were stimulated with the dimeric peptides because EphA2 is the prevalent endogenously expressed EphA receptor in these cells, allowing comparisons with ephrins.

[5] = test system: AKT; test: Inhibition of AKT phosphorylation on S473 in PC3 cells; type: cell-based; details: for EC50 / Etop pAKT inhlb: Table 3; for EC50: PC3 cells treated for 15 min, read-out: ECsa pAKT inhlb.; for Etop pAKT inhlb: 15 min, 1-pAKT/AKT normalized to cells not treated with ligand
Method: as §1

[6] = Peptide solubility in PBS/H2O/DMSO; type: physicochemical
Method: Peptide identity and purity are documented by mass spectrometry and high-performance liquid chromatography (HPLC). The peptide solubility values are determined. Concentrated peptide stocks are prepared in DMSO or H2O and stored frozen at −80° C.

[7] = biological target: T1, EphA2; test: EphA2 activation (Y588 phosphorylation) in cells by monomeric YSA derivatives; type: cell-based; parameters: EphA2 is the prevalent endogenously expressed EphA receptor in these cells; endogenous in cells; host or cells: PC3 prostate cancer cells
From the text: However, as expected given their much higher potency, these two peptides are active at nanomolar concentrations. The C-terminal biotin promotes the agonistic activity of YSA derivative peptides. […] This is confirmed with the crystal structures. Thus, peptides with 1 to 7 residues between Prol 0, which is conserved in all YSA derivatives of Table 2, and the Lys-biotin residue, can all efficiently activate EphA2. […] Non-amidated β[…] has the ability to activate EphA2 in cells, even though the concentrations needed are about 10-fold higher than for the biotinylated peptide and the maximal […] phosphorylation induced by saturating peptide concentrations is about 40% lower. The C-terminally amidated version of the peptide loses the ability to activate EphA2, consistent with a role of the C-terminal negative charge for EphA2 activation even in the absence of biotin.

[8] = biological target: T3, EphA2 LBD; details: previous studies, cited from earlier work
[9] = DMSO, Table 4, third of PBS/H20/DMSO, read-out: Solubility in DMSO
[10] = DMSO, third of PBS/H2O/DMSO, read-out: Solubility in DMSO
[11] = PBS, Table 4, first of PBS/H20/DMSO, read-out: Solubility in PBS
[12] = PBS, first of PBS/H2O/DMSO, read-out: Solubility in PBS
[13] = water, Table 4, second of PBS/H20/DMSO, read-out: Solubility in H20
[14] = water, second of PBS/H2O/DMSO, read-out: Solubility in H2O

Row | SMILES | βu (bias factor βlig) [1] | IC50 [2] | Etop pY588 [4] | EC50 [5] | Etop pAKT inhlb ([5]; PC3 cells) | solubility [6, 9] | solubility [6, 10] | solubility [6, 11] | solubility [6, 12] | solubility [6, 13] | solubility [6, 14] | further results
1 | CC(C)C[C@H](NC(=O)[C@H](Cc1c[nH]c2ccccc12)NC(=O)CCN)C(=O)N[C@@H](C)C(=O)N[C@@H](Cc1ccc(O)cc1)C(=O)N1CCC[C@H]1C(=O)N[C@@H](CC(=O)O)C(=O)N[C@@H](CO)C(=O)N[C@H](C(=O)N1CCC[C@H]1C(=O)N[C@@H](Cc1ccc(O)cc1)C(=O)NCC(=O)N[C@@H](CO)C(=O)NCC(=O)N[C@@H](CSSC[C@H](NC(=O)CNC(=O)[C@H](CO)NC(=O)CNC(=O)[C@H](Cc1ccc(O)cc1)NC(=O)[C@@H]1CCCN1C(=O)[C@@H](NC(=O)[C@H](CO)NC(=O)[C@H](CC(=O)O)NC(=O)[C@@H]1CCCN1C(=O)[C@H](Cc1ccc(O)cc1)NC(=O)[C@H](C)NC(=O)[C@H](CC(C)C)NC(=O)[C@H](Cc1c[nH]c2ccccc12)NC(=O)CCN)C(C)C)C(=O)O)C(=O)O)C(C)C [compound 1, βA-WLA-YGSGC dimer (C-ter)] (I: H-[βAla]WLAYPDSVPYGSGC-OH / II: H-[βAla]WLAYPDSVPYGSGC-OH; disulfide I:15-II:15; N-terminus and C-terminus assumed) | 0.506 ± 0.12 | 71 ± 26 nM | 0.49 ± 0.06 | 39 ± 8 nM | 0.90 ± 0.04 | 5000 µg/mL (≈ 1580 µM) | 5000 µg/mL (≈ 1580 µM) | < 100 µg/mL | < 100 µg/mL | < 100 µg/mL | < 100 µg/mL | Kd [3]: 2900 nM; N (binding stoichiometry by ITC) ([3]; Table 3): N = 1.7 ± 0.2; -TΔS ([3]; Table 6): 16.30 ± 11 kcal/mol; N ([3]; Table 6, binding stoichiometry): 1.7 ± 0.2; ΔG ([3]; Table 6, change in Gibbs energy): -7.55 ± 0.27 kcal/mol; ΔH ([3]; Table 6, change in enthalpy): -23.85 ± 11 kcal/mol
2 | CC(C)C[C@H](NC(=O)[C@H](Cc1c[nH]c2ccccc12)NC(=O)[C@H](C)NC(=O)CNC(=O)[C@@H](N)CSSC[C@H](N)C(=O)NCC(=O)N[C@@H](C)C(=O)N[C@@H](Cc1c[nH]c2ccccc12)C(=O)N[C@@H](CC(C)C)C(=O)N[C@@H](C)C(=O)N[C@@H](Cc1ccc(O)cc1)C(=O)N1CCC[C@H]1C(=O)N[C@@H](CC(=O)O)C(=O)N[C@@H](CO)C(=O)N[C@H](C(=O)N1CCC[C@H]1C(=O)N[C@@H](Cc1ccc(O)cc1)C(=O)N[C@@H](CCCNC(=N)N)C(=O)N1CCC[C@H]1C(=O)N[C@@H](CCCCN)C(N)=O)C(C)C)C(=O)N[C@@H](C)C(=O)N[C@@H](Cc1ccc(O)cc1)C(=O)N1CCC[C@H]1C(=O)N[C@@H](CC(=O)O)C(=O)N[C@@H](CO)C(=O)N[C@H](C(=O)N1CCC[C@H]1C(=O)N[C@@H](Cc1ccc(O)cc1)C(=O)N[C@@H](CCCNC(=N)N)C(=O)N1CCC[C@H]1C(=O)N[C@@H](CCCCN)C(N)=O)C(C)C [compound 6, CGA-WLA-YRPKam dimer (N-ter)] | 0.51 ± 0.13 | 0.4 ± 0.1 nM | 0.98 ± 0.08 | 0.08 ± 0.02 nM | 0.97 ± 0.03 | 10000 µg/mL (≈ 2750 µM) | 10000 µg/mL (≈ 2750 µM) | < 100 µg/mL | < 100 µg/mL | 5000 µg/mL (≈ 1370 µM) | 5000 µg/mL (≈ 1370 µM) | Blig ([1]; bias factor, reference ligand ephrinA1Fc): 0.36 ± 0.09; Emax PY588 ([4]; ephrinA1Fc = 1.00): 0.80 ± 0.01; EC50 ([4]; read-out: EC50 PY588): 0.12 ± 0.01 nM; IC50 ([5]; PC3 cells): 0.043 ± 0.007 nM
3 | CC(C)C[C@H](NC(=O)[C@H](Cc1c[nH]c2ccccc12)NC(=O)CCN)C(=O)N[C@@H](C)C(=O)N[C@@H](Cc1ccc(O)cc1)C(=O)N1CCC[C@H]1C(=O)N[C@@H](CC(=O)O)C(=O)N[C@@H](CO)C(=O)N[C@H](C(=O)N1CCC[C@H]1C(=O)N[C@@H](Cc1ccc(O)cc1)C(=O)N[C@@H](CCCNC(=N)N)C(=O)N1CCC[C@H]1C(=O)N[C@@H](CCCCN)C(=O)O)C(C)C [βA-WLA-YRPK] |  |  |  |  |  |  |  |  |  |  |  | maximal Y588 phosphorylation at saturating peptide concentrations, lower than the biotinylated peptide [7]: about 40%; concentrations needed to activate EphA2 in cells relative to the biotinylated peptide ([7]; higher than for βA-WLA-YRPK-bio): about 10 fold; improvement of binding affinity compared to monomeric YSA-GSGSK-bio [8]: 50 fold; Kd ([8]; read-out: binding affinity for the EphA2 LBD measured by ITC): ~200 nM
